Experimental data reported in publication PMC10178127, “Immunomodulatory Effects of the Pea Defensin Psd1 in the Caco-2/Immune Cells Co-Culture upon Candida albicans Infection” (International Journal of Molecular Sciences, 2023).

Test system: monocyte-derived dendritic cells (moDCs)
Assay: Multiplex xMAP cytokine production, direct stimulation of moDCs
Assay type: cell-based, human
Conditions: 24 h
Procedure: Primary peripheral blood mononuclear cells (PBMCs) collected from healthy donors were purchased from American Type Culture Collection (ATCC PCS-800-011). Primary CD14^+ blood monocytes were isolated from PBMCs by adherence according to standard technique. Monocyte-derived mature dendritic cells (moDCs) were obtained from CD14^+ blood monocytes according to the previously reported protocol. Briefly, blood monocytes were incubated in a complete RPMI-1640 medium (Capricorn Scientific, Ebsdorfergrund, Germany), containing 10% fetal bovine serum (FBS, Capricorn Scientific, Ebsdorfergrund, Germany), 1× antibiotic-antimycotic solution (Invitrogen, Waltham, MA, USA), 800 U/mL rhGM-CSF (Sci-Store, Moscow, Russia) and 500 U/mL rhIL-4 (Sci-Store) for 3 days in CellXpert C170i CO2-incubator (Eppendorf, Hamburg, Germany). Fresh complete RPMI-1640 medium with rhGM-CSF and rhIL-4 was added to the culture on day 3. On day 5, fresh complete RPMI-1640 containing 100 U/mL rhTNF-α (Sigma-Aldrich, St. Louis, MO, USA) as well as 800 U/mL rhGM-CSF and 500 U/mL rhIL-4 was added and the culture was incubated for another 4 days until full maturation.
Monocytes and moDCs were seeded into the wells of 48- and 24-well plates in the complete RPMI-1640 medium supplemented with 10% human AB serum (HABS, Capricorn Scientific) without antibiotics 24 h prior to the experiment, and kept in a humidified CO2-incubator (5% CO2, 37 °C). After 24 h, the medium in the wells of the 48-well plate was replaced by fresh complete RPMI-1640 medium with 10% HABS, supplemented with 2 µM of Psd1 for the sample wells or fresh medium alone for the control wells. Medium in the wells of the 24-well plate was replaced by fresh complete RPMI-1640 medium with 10% human serum without antibiotics. Then, Millicell inserts with Caco-2 monolayers with TEER > 400 Ωcm^2 were placed into the wells of the 24-well plate, containing monocytes or moDCs. Wells with Millicell inserts with Caco-2 monolayers without immune cells were used as control wells. Medium in apical chambers of Millicell inserts was replaced by fresh complete RPMI-1640 with 10% human serum medium containing Psd1 at the final concentration of 2 µM or Candida albicans at the concentration of 5 × 10^4 cells/mL or yeast cells together with the pea defensin at the same concentration. Fresh complete RPMI-1640 medium only with 10% human serum and without antibiotics was used in control wells. Plates were kept in CO2-incubator (5% CO2, 37 °C) for another 24 h. Culture supernatants from the wells of the 48-well plate and basolateral chambers of the 24-well plate were collected and stored at −70 °C degrees less than one month prior to the analytes assessment.
The following 48 analytes were measured at a protein level by multiplex xMAP technology using the MILLIPLEX Human Cytokine/Chemokine/Growth Factor Panel A kit (HCYTA-60K-PX48, Merck, Darmstadt, Germany): sCD40L, EGF, Eotaxin-1/CCL11, FGF-2/FGF-basic, Flt-3 ligand, Fractalkine/CX3CL1, G-CSF, GM-CSF, GROα/CXCL1, IFNα2, IFNγ, IL-1α, IL-1β, IL-1RA, IL-2, IL-3, IL-4, IL-5, IL-6, IL-7, IL-8/CXCL8, IL-9, IL-10, IL-12(p40), IL-12(p70), IL-13, IL-15, IL-17A/CTLA8, IL-17E/IL-25, IL-17F, IL-18, IL-22, IL-27, IP-10/CXCL10, MCP-1/CCL2, MCP-3/CCL7, M-CSF, MDC/CCL22, MIG/CXCL9, MIP-1α/CCL3, MIP-1β/CCL4, PDGF-AA, PDGF-AB/BB, RANTES/CCL5, TGFα, TNFα, TNFβ, and VEGF-A. Multiplex-based assay read-out was performed using the MAGPIX system (Merck) with the xPONENT 4.2 software (Merck) in accordance with the manufacturer’s instruction with overnight incubation of the samples with primary antibodies. A final analysis was carried out with the MILLIPLEX Analyst v5.1 software (Merck). Measurements were performed twice for each sample. Release of the analytes in control and experimental samples was compared with an unpaired two-sample t-test using GraphPad Prism v.8.0.1 (GraphPad Software, Inc., San Diego, CA, USA). The p values ≤ 0.05 were considered significant.

With “Psd1: pea defensin from Pisum sativum (UNIPROT P81929), recombinant peptide overexpressed in Escherichia coli (KTCEHLADTYRGVCFTNASCDDHCKNKAHLISGTCHNWKCFCTQNC; UniProt P81929 1-46, looked up)” the EGF level (moDCs+Psd1, 2 µM, supernatant) was 6.22 pg/mL, the Eotaxin level (moDCs+Psd1, 2 µM, supernatant) was <3.52↓ pg/ml and the FGF-2 level (moDCs+Psd1, 2 µM, supernatant) was 55.36 pg/mL. For the same substance, the FLT-3L level (moDCs+Psd1, 2 µM, supernatant) was 1.05 pg/mL, the Fractalkine level (moDCs+Psd1, 2 µM, supernatant) was <17.82↓ pg/ml and the G-CSF level (moDCs+Psd1, 2 µM, supernatant) was 49.49 pg/mL. The GM-CSF level (moDCs+Psd1, 2 µM, supernatant) was 11.89 pg/mL, the GROa level (moDCs+Psd1, 2 µM, supernatant) was <0.61↓ pg/ml and the IFNa2 level (moDCs+Psd1, 2 µM, supernatant) was 12.78 pg/mL. For the same substance, the IFNg level (moDCs+Psd1, 2 µM, supernatant) was 7.25 pg/mL, the IL-1RA level (moDCs+Psd1, 2 µM, supernatant) was 53.29 pg/mL and the IL-1a level (moDCs+Psd1, 2 µM, supernatant) was 12.23 pg/mL. The IL-1b level (moDCs+Psd1, 2 µM, supernatant) was <2.26↓ pg/ml, the IL-2 level (moDCs+Psd1, 2 µM, supernatant) was 1.82 pg/mL and the IL-3 level (moDCs+Psd1, 2 µM, supernatant) was 1.61 pg/mL. For the same substance, the IL-4 level (moDCs+Psd1, 2 µM, supernatant) was <1.14↓ pg/ml, the IL-5 level (moDCs+Psd1, 2 µM, supernatant) was 4.15 pg/mL and the IL-6 level (moDCs+Psd1, 2 µM, supernatant) was 14.4 pg/mL. The IL-7 level (moDCs+Psd1, 2 µM, supernatant) was <0.38↓ pg/ml, the IL-8 level (moDCs+Psd1, 2 µM, supernatant) was 345.9 pg/mL and the IL-9 level (moDCs+Psd1, 2 µM, supernatant) was 3.67 pg/mL. The IL-10 level (moDCs+Psd1, 2 µM, supernatant) was 33.74 pg/mL, the “IL-12 (p40) level” value (moDCs+Psd1, 2 µM, supernatant) was 98.57 pg/mL and the “IL-12 (p70) level” value (moDCs+Psd1, 2 µM, supernatant) was <1.68↓ pg/ml. For the same substance, the IL-13 level (moDCs+Psd1, 2 µM, supernatant) was 19.51 pg/mL, the IL-15 level (moDCs+Psd1, 2 µM, supernatant) was 12.91 pg/mL and the IL-17A level (moDCs+Psd1, 2 µM, supernatant) was 3.9 pg/mL. The IL-17E/IL-25 level (moDCs+Psd1, 2 µM, supernatant) was <18.85↓ pg/ml, the IL-17F level (moDCs+Psd1, 2 µM, supernatant) was <19.03↓ pg/ml and the IL-18 level (moDCs+Psd1, 2 µM, supernatant) was 2.59 pg/mL. It also gave an IL-22 level (moDCs+Psd1, 2 µM, supernatant) of 12.46 pg/mL, an IL-27 level (moDCs+Psd1, 2 µM, supernatant) of 135.68 pg/mL and an IP-10 level (moDCs+Psd1, 2 µM, supernatant) of 8892 pg/mL. It also gave a M-GSF level (moDCs+Psd1, 2 µM, supernatant) of 218.78 pg/mL, an MCP-1 level (moDCs+Psd1, 2 µM, supernatant) of 1760 pg/mL and an MCP-3 level (moDCs+Psd1, 2 µM, supernatant) of 49.77 pg/mL. The MDC level (moDCs+Psd1, 2 µM, supernatant) was 3016 pg/mL, the MIG level (moDCs+Psd1, 2 µM, supernatant) was 30050 pg/mL and the MIP-1a level (moDCs+Psd1, 2 µM, supernatant) was 185.33 pg/mL. For the same substance, the MIP-1b level (moDCs+Psd1, 2 µM, supernatant) was 554.97 pg/mL, the PDGF-AA level (moDCs+Psd1, 2 µM, supernatant) was 89.5 pg/mL and the PDGF-AB/BB level (moDCs+Psd1, 2 µM, supernatant) was 139.81 pg/mL. For the same substance, the RANTES level (moDCs+Psd1, 2 µM, supernatant) was 65.35 pg/mL, the TGF-a level (moDCs+Psd1, 2 µM, supernatant) was 113.74 pg/mL and the TNFa level (moDCs+Psd1, 2 µM, supernatant) was 55.68 pg/mL. For the same substance, the TNFb level (moDCs+Psd1, 2 µM, supernatant) was 2.29 pg/mL, the VEGFa level (moDCs+Psd1, 2 µM, supernatant) was <1.40↓ pg/ml and the sCD40L level (moDCs+Psd1, 2 µM, supernatant) was 133.96 pg/mL. The “increase in IL-12, IL-15, IL-27 and MCP-1” value (moDCs, 2 μM) was “statistically significant” and the “production of TNFα, IL-6, IL-8, IP-10, MCP-3, and G-CSF” value (moDCs, 2 μM) was “increased”.
